According to BindingDB's records for patent US20240148821 (Chugai Seiyaku Kabushiki Kaisha, 2024):
Numbered stars: 1 amine (or outer) side, 2 acyl side, 3 side chain; on linkers, the order of the positions; unused ones are H or OH. Bridge positions count the residues as written; N and C are the ends. Square brackets hold non-standard residues; d marks the D form. Peptide text beside a SMILES is read from it. * marks the point of attachment. hPhe(3-Cl-4-CF3) = N[C@@H](CCc1ccc(C(F)(F)F)c(Cl)c1)C(=O)O; hPhe(3-F,4-CF3) = N[C@@H](CCc1ccc(C(F)(F)F)c(F)c1)C(=O)O; X134 = CN([C@@H](Cc1ccc(C#N)nc1)C(=O)[*:2])[*:1]; NMeTyr(3-F) = CN[C@@H](Cc1ccc(O)c(F)c1)C(=O)O; oXylylene = c1ccc(C[*:2])c(C[*:1])c1; NMeGly(cBu) = CN[C@H](C(=O)O)C1CCC1; NMeCha = CN[C@@H](CC1CCCCC1)C(=O)O; cisHyp = O=C(O)[C@@H]1C[C@H](O)CN1; X108 = O=C(CN(c1ccsc1)[*:1])[*:2]; Hyp = O=C(O)[C@@H]1C[C@@H](O)CN1; NMeChg = CN[C@H](C(=O)O)C1CCCCC1; NMeD = CN[C@@H](CC(=O)O)C(=O)O; Benzyl(4-Cl) = Clc1ccc(C*)cc1; NMeL = CN[C@@H](CC(C)C)C(=O)O; NMeA = CN[C@@H](C)C(=O)O; Piperidide = C1CCN(*)CC1; X57 = FC(F)Oc1ccc(C*)cc1; Ac5c = NC1(C(=O)O)CCCC1; X106 = Clc1cccc(C*)c1; Nlys = NCCCCNCC(=O)O; X94 = COc1cccc(C*)c1; Meb = Cc1ccc(C*)cc1; X87 = Clc1ccccc1C*; Sar = CNCC(=O)O

Target: GTPase KRas (G12D) and Son of Sevenless Homolog 1 (SOS) (Homo sapiens, UniProt P01116, G12D)
Sequence (P01116 whole entry G12D): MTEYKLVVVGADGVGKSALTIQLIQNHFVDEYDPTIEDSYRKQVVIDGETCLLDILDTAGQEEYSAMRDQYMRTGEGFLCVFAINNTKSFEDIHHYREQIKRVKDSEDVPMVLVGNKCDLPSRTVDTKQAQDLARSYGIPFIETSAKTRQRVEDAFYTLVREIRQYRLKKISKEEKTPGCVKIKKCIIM
Sequence (Q07889 whole entry, further chain): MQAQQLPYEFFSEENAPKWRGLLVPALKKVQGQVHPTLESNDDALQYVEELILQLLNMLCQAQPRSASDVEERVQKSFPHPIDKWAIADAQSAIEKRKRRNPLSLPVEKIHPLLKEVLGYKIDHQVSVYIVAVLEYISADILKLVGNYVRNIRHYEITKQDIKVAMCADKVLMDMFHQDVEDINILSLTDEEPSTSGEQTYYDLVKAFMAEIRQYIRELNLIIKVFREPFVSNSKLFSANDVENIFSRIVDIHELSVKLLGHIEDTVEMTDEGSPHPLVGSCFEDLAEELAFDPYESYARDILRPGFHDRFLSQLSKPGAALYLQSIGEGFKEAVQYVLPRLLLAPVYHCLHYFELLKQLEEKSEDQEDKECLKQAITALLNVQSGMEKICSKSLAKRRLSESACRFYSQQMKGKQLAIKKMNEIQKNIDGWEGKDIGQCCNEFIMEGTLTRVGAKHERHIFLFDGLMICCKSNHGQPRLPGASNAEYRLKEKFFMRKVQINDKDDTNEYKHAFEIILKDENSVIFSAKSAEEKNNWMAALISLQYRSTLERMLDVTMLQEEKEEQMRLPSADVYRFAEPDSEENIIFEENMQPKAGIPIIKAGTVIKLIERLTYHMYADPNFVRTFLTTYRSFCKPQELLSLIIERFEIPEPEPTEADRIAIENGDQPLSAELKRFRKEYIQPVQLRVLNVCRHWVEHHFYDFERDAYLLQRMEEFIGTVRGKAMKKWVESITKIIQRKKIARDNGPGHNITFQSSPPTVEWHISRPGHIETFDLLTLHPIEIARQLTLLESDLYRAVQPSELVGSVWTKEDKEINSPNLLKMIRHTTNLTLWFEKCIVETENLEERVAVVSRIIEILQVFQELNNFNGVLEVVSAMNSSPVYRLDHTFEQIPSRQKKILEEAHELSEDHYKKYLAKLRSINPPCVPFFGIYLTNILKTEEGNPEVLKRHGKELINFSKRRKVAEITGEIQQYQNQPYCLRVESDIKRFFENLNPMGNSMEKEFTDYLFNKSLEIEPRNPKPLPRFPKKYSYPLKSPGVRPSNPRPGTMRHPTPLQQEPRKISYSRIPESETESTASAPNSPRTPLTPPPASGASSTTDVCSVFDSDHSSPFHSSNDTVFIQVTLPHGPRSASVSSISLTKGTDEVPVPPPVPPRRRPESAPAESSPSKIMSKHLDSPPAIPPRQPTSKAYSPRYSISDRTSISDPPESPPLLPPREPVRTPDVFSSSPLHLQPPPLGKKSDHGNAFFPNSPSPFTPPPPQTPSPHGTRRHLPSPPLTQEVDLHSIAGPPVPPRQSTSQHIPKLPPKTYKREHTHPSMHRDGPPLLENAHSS
Assay: AlphaScreen Assay

**Q.** How did the IC50 turn out when CC[C@H](C)[C@@H]1NC(=O)[C@H](CC(C)C)N(C)C(=O)C[C@@H](C(=O)N2CCCCC2)N(C)C(=O)[C@H](CC(C)C)N(C)C(=O)C2(CCCC2)NC(=O)[C@@H]2C[C@@H](OCc3ccc(C)cc3)CN2C(=O)[C@H](CCc2ccc(C(F)(F)F)c(F)c2)NC(=O)CN(C)C(=O)[C@H](CC2CCCCC2)N(C)C(=O)CN(C)C(=O)CN(C)C1=O [US20240148821, Compound 2130] ([NMeL]I[Sar][Sar][NMeCha][Sar][hPhe(3-F,4-CF3)][Hyp](Meb)[Ac5c][NMeL][NMeD]-Piperidide; lactam N-11) was run?
**A.** Its IC50 is 10 nM.

**Q.** How did the IC50 turn out when CC[C@H](C)[C@@H]1NC(=O)[C@H](CC(C)C)N(C)C(=O)C[C@@H](C(=O)N2CCCCC2)N(C)C(=O)[C@H](CC(C)C)N(C)C(=O)C2(CCCC2)NC(=O)[C@@H]2C[C@@H](OCc3cccc(OC)c3)CN2C(=O)[C@H](CCc2ccc(C(F)(F)F)c(F)c2)NC(=O)CN(C)C(=O)[C@H](CC2CCCCC2)N(C)C(=O)CN(C)C(=O)CN(C)C1=O [US20240148821, Compound 2131] ([NMeL]I[Sar][Sar][NMeCha][Sar][hPhe(3-F,4-CF3)][Hyp](X94)[Ac5c][NMeL][NMeD]-Piperidide; lactam N-11) was run?
**A.** The IC50 was 9.8 nM.

**Q.** Which IC50 does the source give for CC[C@H](C)[C@@H]1NC(=O)[C@H](CC(C)C)N(C)C(=O)C[C@@H](C(=O)N2CCCCC2)N(C)C(=O)[C@H](CC(C)C)N(C)C(=O)C2(CCCC2)NC(=O)[C@@H]2C[C@H](OCc3ccccc3Cl)CN2C(=O)[C@H](CCc2ccc(C(F)(F)F)c(F)c2)NC(=O)CN(C)C(=O)[C@H](CC2CCCCC2)N(C)C(=O)CN(C)C(=O)CN(C)C1=O [US20240148821, Compound 2132] ([NMeL]I[Sar][Sar][NMeCha][Sar][hPhe(3-F,4-CF3)][cisHyp](X87)[Ac5c][NMeL][NMeD]-Piperidide; lactam N-11) here?
**A.** Its IC50 is 91 nM.

**Q.** For CC[C@H](C)[C@@H]1NC(=O)[C@H](CC(C)C)N(C)C(=O)C[C@@H](C(=O)N2CCCCC2)N(C)C(=O)[C@H](CC(C)C)N(C)C(=O)C2(CCCC2)NC(=O)[C@@H]2C[C@@H](OCc3ccc(Cl)cc3)CN2C(=O)[C@H](CCc2ccc(C(F)(F)F)c(F)c2)NC(=O)CN(C)C(=O)[C@H](CC2CCCCC2)N(C)C(=O)CN(C)C(=O)CN(C)C1=O [US20240148821, Compound 2133] ([NMeL]I[Sar][Sar][NMeCha][Sar][hPhe(3-F,4-CF3)][Hyp](Benzyl(4-Cl))[Ac5c][NMeL][NMeD]-Piperidide; lactam N-11), which IC50 is on record?
**A.** The IC50 was 12 nM.

**Q.** CC[C@H](C)[C@@H]1NC(=O)[C@H](CC(C)C)N(C)C(=O)C[C@@H](C(=O)N2CCCCC2)N(C)C(=O)[C@H](CC(C)C)N(C)C(=O)C2(CCCC2)NC(=O)[C@@H]2C[C@@H](OCc3cccc(Cl)c3)CN2C(=O)[C@H](CCc2ccc(C(F)(F)F)c(F)c2)NC(=O)CN(C)C(=O)[C@H](CC2CCCCC2)N(C)C(=O)CN(C)C(=O)CN(C)C1=O [US20240148821, Compound 2134] ([NMeL]I[Sar][Sar][NMeCha][Sar][hPhe(3-F,4-CF3)][Hyp](X106)[Ac5c][NMeL][NMeD]-Piperidide; lactam N-11) was tested. Which IC50 did it give?
**A.** Its IC50 is 9.8 nM.

**Q.** CC[C@H](C)[C@@H]1NC(=O)[C@H](CC(C)C)N(C)C(=O)C[C@@H](C(=O)N2CCCCC2)N(C)C(=O)[C@H](CC(C)C)N(C)C(=O)C2(CCCC2)NC(=O)[C@@H]2C[C@H](OCc3ccc(OC(F)F)cc3)CN2C(=O)[C@H](CCc2ccc(C(F)(F)F)c(F)c2)NC(=O)CN(C)C(=O)[C@H](CC2CCCCC2)N(C)C(=O)CN(C)C(=O)CN(C)C1=O [US20240148821, Compound 2135] ([NMeL]I[Sar][Sar][NMeCha][Sar][hPhe(3-F,4-CF3)][cisHyp](X57)[Ac5c][NMeL][NMeD]-Piperidide; lactam N-11) was tested. Which IC50 did it give?
**A.** Its IC50 is 88 nM.

**Q.** With CC[C@H](C)[C@@H]1NC(=O)[C@H](CC(C)C)N(C)C(=O)C[C@@H](C(=O)N2CCCCC2)N(C)C(=O)[C@H](CC(C)C)N(C)C(=O)C2(CCCC2)NC(=O)[C@@H]2C[C@H](OCc3cccc(OC)c3)CN2C(=O)[C@H](CCc2ccc(C(F)(F)F)c(F)c2)NC(=O)CN(C)C(=O)[C@H](CC2CCCCC2)N(C)C(=O)CN(C)C(=O)CN(C)C1=O [US20240148821, Compound 2136] ([NMeL]I[Sar][Sar][NMeCha][Sar][hPhe(3-F,4-CF3)][cisHyp](X94)[Ac5c][NMeL][NMeD]-Piperidide; lactam N-11) as the compound, how does the IC50 read?
**A.** The IC50 was 39 nM.

**Q.** How did the IC50 turn out when CC[C@H](C)[C@@H]1NC(=O)[C@H](CC(C)C)N(C)C(=O)C[C@@H](C(=O)N2CCCCC2)N(C)C(=O)[C@H](CC(C)C)N(C)C(=O)C2(CCCC2)NC(=O)[C@@H]2C[C@H](OCc3ccccc3C)CN2C(=O)[C@H](CCc2ccc(C(F)(F)F)c(F)c2)NC(=O)CN(C)C(=O)[C@H](CC2CCCCC2)N(C)C(=O)CN(C)C(=O)CN(C)C1=O [US20240148821, Compound 2137] ([NMeL]I[Sar][Sar][NMeCha][Sar][hPhe(3-F,4-CF3)][cisHyp](oXylylene)[Ac5c][NMeL][NMeD]-Piperidide; lactam N-11) was run?
**A.** The IC50 was 69 nM.

**Q.** With CC[C@H](C)[C@@H]1NC(=O)[C@H](CC(C)C)N(C)C(=O)C[C@@H](C(=O)N2CCCCC2)N(C)C(=O)[C@H](CC(C)C)N(C)C(=O)C2(CCCC2)NC(=O)[C@@H]2C[C@@H](OCc3ccccc3Cl)CN2C(=O)[C@H](CCc2ccc(C(F)(F)F)c(F)c2)NC(=O)CN(C)C(=O)[C@H](CC2CCCCC2)N(C)C(=O)CN(C)C(=O)CN(C)C1=O [US20240148821, Compound 2138] ([NMeL]I[Sar][Sar][NMeCha][Sar][hPhe(3-F,4-CF3)][Hyp](X87)[Ac5c][NMeL][NMeD]-Piperidide; lactam N-11) as the compound, how does the IC50 read?
**A.** Its IC50 is 8.6 nM.

**Q.** CC[C@H](C)[C@@H]1NC(=O)[C@H](CC(C)C)N(C)C(=O)C[C@@H](C(=O)N2CCCCC2)N(C)C(=O)[C@H](CC(C)C)N(C)C(=O)C2(CCCC2)NC(=O)[C@@H]2C[C@@H](OCc3ccccc3C)CN2C(=O)[C@H](CCc2ccc(C(F)(F)F)c(F)c2)NC(=O)CN(C)C(=O)[C@H](CC2CCCCC2)N(C)C(=O)CN(C)C(=O)CN(C)C1=O [US20240148821, Compound 2139] ([NMeL]I[Sar][Sar][NMeCha][Sar][hPhe(3-F,4-CF3)][Hyp](oXylylene)[Ac5c][NMeL][NMeD]-Piperidide; lactam N-11) was tested. Which IC50 did it give?
**A.** The IC50 was 23 nM.

**Q.** How did the IC50 turn out when CC[C@H](C)[C@@H]1NC(=O)[C@H](CC(C)C)N(C)C(=O)C[C@@H](C(=O)N2CCCCC2)N(C)C(=O)[C@H](CC(C)C)N(C)C(=O)C2(CCCC2)NC(=O)[C@@H]2C[C@H](OCc3ccc(C)cc3)CN2C(=O)[C@H](CCc2ccc(C(F)(F)F)c(F)c2)NC(=O)CN(C)C(=O)[C@H](CC2CCCCC2)N(C)C(=O)CN(C)C(=O)CN(C)C1=O [US20240148821, Compound 2140] ([NMeL]I[Sar][Sar][NMeCha][Sar][hPhe(3-F,4-CF3)][cisHyp](Meb)[Ac5c][NMeL][NMeD]-Piperidide; lactam N-11) was run?
**A.** Its IC50 is 32 nM.

**Q.** For CC[C@H](C)[C@@H]1NC(=O)[C@H](C)N(C)C(=O)C[C@@H](C(=O)N2CCCCC2)N(C)C(=O)[C@H](C2CCC2)N(C)C(=O)C2(CCCC2)NC(=O)CN(c2ccsc2)C(=O)[C@H](CCc2ccc(C(F)(F)F)c(Cl)c2)NC(=O)CN(C)C(=O)[C@H](CC2CCCCC2)N(C)C(=O)CN(C)C(=O)CN(C)C1=O [US20240148821, Compound 2149] ([NMeA]I[Sar][Sar][NMeCha][Sar][hPhe(3-Cl-4-CF3)][X108][Ac5c][NMeGly(cBu)][NMeD]-Piperidide; lactam N-11), which IC50 is on record?
**A.** Its IC50 is 4 nM.

**Q.** For CC[C@H](C)[C@@H]1NC(=O)[C@H](CC(C)C)N(C)C(=O)C[C@@H](C(=O)N2CCCCC2)N(C)C(=O)[C@H](C2CCCCC2)N(C)C(=O)C2(CCCC2)NC(=O)[C@H](Cc2ccc(C#N)nc2)N(C)C(=O)[C@H](CCc2ccc(C(F)(F)F)c(Cl)c2)NC(=O)CN(C)C(=O)[C@H](CC2CCCCC2)N(C)C(=O)CN(C)C(=O)CN(C)C1=O [US20240148821, Compound 2169] ([NMeL]I[Sar][Sar][NMeCha][Sar][hPhe(3-Cl-4-CF3)][X134][Ac5c][NMeChg][NMeD]-Piperidide; lactam N-11), which IC50 is on record?
**A.** Its IC50 is 6.1 nM.

**Q.** CC[C@H](C)[C@@H]1NC(=O)[C@H](CC(C)C)N(C)C(=O)C[C@@H](C(=O)N2CCCCC2)N(C)C(=O)[C@H](C2CCCCC2)N(C)C(=O)C2(CCCC2)NC(=O)[C@H](Cc2ccc(O)c(F)c2)N(C)C(=O)[C@H](CCc2ccc(C(F)(F)F)c(Cl)c2)NC(=O)CN(C)C(=O)[C@H](CC2CCCCC2)N(C)C(=O)CN(C)C(=O)CN(C)C1=O [US20240148821, Compound 2170] ([NMeL]I[Sar][Sar][NMeCha][Sar][hPhe(3-Cl-4-CF3)][NMeTyr(3-F)][Ac5c][NMeChg][NMeD]-Piperidide; lactam N-11) was tested. Which IC50 did it give?
**A.** Its IC50 is 69 nM.

**Q.** CC[C@H](C)[C@@H]1NC(=O)[C@H](CC(C)C)N(C)C(=O)C[C@@H](C(=O)N2CCCCC2)N(C)C(=O)[C@H](C2CCCCC2)N(C)C(=O)C2(CCCC2)NC(=O)CN(CCCCN)C(=O)[C@H](CCc2ccc(C(F)(F)F)c(Cl)c2)NC(=O)CN(C)C(=O)[C@H](CC2CCCCC2)N(C)C(=O)CN(C)C(=O)CN(C)C1=O [US20240148821, Compound 2186] ([NMeL]I[Sar][Sar][NMeCha][Sar][hPhe(3-Cl-4-CF3)][Nlys][Ac5c][NMeChg][NMeD]-Piperidide; lactam N-11) was tested. Which IC50 did it give?
**A.** The IC50 was 7.5 nM.
